Tests used:
[1] = test system: pups; experiment: Neonatal behavioural tests of Fox's battery (developmental landmarks, locomotion, reflexes); assay type: in vivo, mice; settings: P1 to P13; dams given 40 or 120 mg/kg during gestation
Procedure: In this part of the study, dams were treated until the day of delivery. After analysing the embryo toxicity data, the treatments were categorized as controls (saline vehicle solution alone), low dose (40 mg/kg) and high dose (120 mg/kg). […] The day of birth was designated as postnatal day (P) P0 and the litter size delivered by each dam was recorded, checking each pup for gross abnormalities. Pups were nursed by their natural dams until weaning and from PD 2, the pups were weighed and neonatal behavioural tests were carried out on 12 control mice, 12 low dose and 10 high dose mice from 7 litters. […]
The animal was placed face up, and the time taken to turn over and adopt a prone position with all four feet on the ground was assessed. […]
A mouse was placed at the edge of the table, with its forepaws and head extending over the edge. The response was scored as positive if the mouse turned around and crawled away at least 45° from the “cliff”. […]
The animal was placed face down on a 30° incline and the latency to turn 180° was recorded. […]
The total number of degrees turned by the pup during a 30 s period was recorded. […] The number of degrees was only scored in terms of completed 90° segments.
The latency of a mouse to walk a distance exceeding its body length on all four legs was measured on a flat surface covered with green paper. […]

[2] = test system: adult male mice; experiment: Motor activity and exploration in the open field; assay type: in vivo; settings: high-dose LCM in utero; 3–5 month old mice; 5 minutes
Procedure: (§1) All trials were performed by an experimenter blind to the drug treatment.
Motor activity in the open field. To evaluate locomotor and exploratory activity, mice were placed in an open field for 5 minutes (38 x 21 x 15 cm: Cybertec S.A., Madrid, Spain). This apparatus consisted of a walled platform containing infrared (IR) emitters and sensors coupled to an actimeter, and the movement sensor was connected to a computer that recorded the number of times the mouse interrupted the IR beams/min. Exploratory activity, was determined through the time the mice interacted with two different objects in a 15 minute session.

[3] = test system: adult male mice; experiment: Pain assay (hot plate); assay type: in vivo; settings: 120 mg/kg LCM during gestation; at 52 and 55 degrees relative to control
Procedure: as §1
Pain assay. Pain behaviour was assessed in mice using the hot plate. For the hot-plate test, a glass cylinder (16 cm high, 16 cm in diameter) was used to constrain the mice to the heated surface of the plate. The plate surface was maintained at 50-55 ± 0.5 °C and the latency to commence paw-licking was measured, using a 30 s cut-off time for each of the tested temperatures. Each temperature was tested with 1h apart.

[4] = test system: adult male mice; experiment: Dark-light emergence task; assay type: in vivo; settings: 40 mg/kg in utero; 5 minutes
Procedure: as §1
Dark-light emergence task. Anxiety-like behaviour was determined in mice using the dark-light emergence test. Testing was carried out in a white open field (50 x 50 cm) containing a small opaque chamber (12 x 12 cm) situated in the centre. The open field was illuminated by a lamp directed at the centre of the field (120 lux focused on the floor). Mice were moved to the testing room 1 hour prior to behavioural testing and they were introduced into the unfamiliar test environment by placing them into the small chamber and recording their behaviour over 5 minutes with a video camera. The total time spent outside the chamber was then quantified by reviewing the video recording.

[5] = test system: adult male mice; experiment: Tail suspension test; assay type: in vivo; settings: 5 minutes
Procedure: as §1
Tail suspension test. Depression-like behaviour in mice was determined by measuring the time spent immobile in the tail suspension test. Mice were suspended above the floor by attaching the end of their tail to wire netting, and the time spent immobile during a 5 min test session was measured.

[6] = test system: adult male mice; experiment: Sociability test; assay type: in vivo
Procedure: as §1
Sociability test. The social testing apparatus consisted of a rectangular arena (55 x 40 x 40 cm) in which a small, round wire cage (11 cm in height, with a bottom diameter of 9 cm, vertical bars 0.5 cm and horizontal bars spaced 1 cm apart) was placed in a corner, allowing nose contact between the bars but preventing fighting. The subject mouse was first placed in the arena for 5 minutes with the round wire cage empty. After that, a strange mouse was place in the round cage in […] and the subject was allowed to explore the entire social test box for 10 min. The time spent around the empty and occupied cage was measured with the aid of the camera fitted to the top of the box.

[7] = Nissl staining and immunohistochemistry (calbindin, calretinin, doublecortin) of adult brain; assay type: in vivo, mice
Procedure: (§2) As formerly described by[59], mice from each experimental group were anesthetized with 4% of chloral hydrate (10 µL/g of weight) and trans-cardiacally perfused with cold saline. Brains were removed and fixed by immersion for 24 h at 4 °C in 4% paraformaldehyde prepared in phosphate-buffered saline (PBS). Tissue was cryoprotected in 30% sucrose-PBS for 2 days at 4 °C and coronal brain sections (50 µm) were then processed for Nissl staining and free-floating immunohistochemistry. Sections encompassed roughly between 2.80 mm to -2.80 mm from Bregma[60] were selected for Toluidine blue staining and immunohistochemical processing. Brain slices from all animals were processed simultaneously in each assay. Immunohistochemistry assays were performed with free-floating sections and an avidin-biotinylated peroxidase method. Primary antibodies used were calbindin (CB, 1:500, Santa Cruz, sc-365360), calretinin (CR, 1:1000, Santa Cruz, sc-26512) and doublecortin (DCX, 1:500, Santa Cruz, sc-8066). Secondary biotinylated antibodies were used (1:500). […] Several control sections were processed without the primary antibody, showing no signal. To minimize variability, at least 2 sections from each area were analysed per animal on a bright-field DMRB RFY HC microscope (Leica) using a 10X objective. For DCX quantification images were taken using a 20X objective and later a whole image of dentate gyrus was reconstructed using Photoshop tiling function. In each section, the total number of labelled cells per area of tissue was quantified using Image-J software (downloaded as a free software package from the public domain: http://rsb.info.nih.gov/ij/download.html). 6 different animals were processed for each primary antibody and pharmacologic treatment from 10 litters.

[8] = test system: adult mouse neocortex; experiment: as above; assay type: in vivo, mice
Procedure: as §2

SMILES: COC[C@@H](NC(C)=O)C(=O)NCc1ccccc1 [LCM, R-2-acetamido-N-benzyl-3-methoxypropionamide]
- postnatal somatometric development and reflexological analyses (body weight, developmental landmarks, locomotor activity, balance reflexes, suspension test) [1]: dose-dependent delay
- locomotor activity in open field [2]: enhanced locomotor activity
- thermal nociception in the hot plate test [3]: significant hyperalgesia
- time spent in the dark compartment (emergence test) [4]: 217.2 ± 11.19 s
- immobility time (tail suspension test) ([5]; 40 mg/kg in utero): 82.58 ± 7.38 s
- immobility time (tail suspension test) ([5]; 120 mg/kg in utero): 109.0 ± 7.69 s
- social interaction with a strange mouse (sniffing time) ([6]; 40 mg/kg in utero): 183.4 ± 11.01 s
- social interaction with a strange mouse (sniffing time) ([6]; 120 mg/kg in utero): 172.0 ± 10.78 s
- DCX labelling in ventral DG ([7]; 40 mg/kg in utero): 13.46 ± 1.03 cells/100 µm²
- DCX labelling in ventral DG ([7]; 120 mg/kg in utero): 9.75 ± 0.85 cells/100 µm²
- number of CR neurons in PrL cortex ([8]; 40 mg/kg in utero): 10.83 ± 1.12 cells/100 µm²
- number of CR neurons in RSA cortex ([8]; 40 mg/kg in utero): 16.18 ± 1.23 cells/100 µm²
- number of calbindin (CB) labelled neurons in the amygdala ([8]; 40 mg/kg in utero): 23.28 ± 2.98 cells/100 µm^2
- number of CR neurons in PrL cortex ([8]; 120 mg/kg in utero): 13.03 ± 1.08 cells/100 µm²
- number of CR neurons in RSA cortex ([8]; 120 mg/kg in utero): 16.94 ± 0.7 cells/100 µm²
- number of calbindin (CB) labelled neurons in the amygdala ([8]; 120 mg/kg in utero): 13 ± 1.8 cells/100 µm^2
